# Values joined by “and” are separate entries in the source; they are usually repeats but may differ in a detail not shown here. Equal entries are not always repeated. Where two headings read alike, the source gives them in different places.
# Assays:
# [1] = test system: Jurkat (acute T-cell leukemia); assay: WST-1 cell proliferation assay, cytotoxicity screening; format: cell-based; settings: Homo sapiens, 48 h, read-out: growth percent (GP) Jurkat
# Description: (§1) Selected human tumor and nontumor cell lines Jurkat (acute T-cell leukemia), MOLT-4 (acute lymphoblastic leukemia), A549 (lung carcinoma), HT-29 (colorectal adenocarcinoma), PANC-1 (pancreas epithelioid carcinoma), A2780 (ovarian carcinoma), HeLa (cervix adenocarcinoma), MCF-7 (breast adenocarcinoma), SAOS-2 (osteosarcoma) and MRC-5 (nontumor lung fibroblasts) were purchased from European Collection of Authenticated Cell Cultures (ECACC, Salisbury, UK) and cultured according to the provider’s culture method guidelines. […] The cells in low passage number (nontumor primary cell line MRC-5 was used for a maximum of 10 passages and cancer cell lines were used for a maximum of 20 passages) and in an exponential growth phase were used for this study.
# (§2) Each cell line was seeded at a previously established optimal density (1 × 10^3 to 50 × 10^3 cells per well) in a 96-well plate (TPP, Trasadingen, Switzerland) and cells were allowed to settle overnight. During screening tests for cytotoxicity, cells were treated with alkaloids at a final concentration of 10 μM for 48 h. Doxorubicin (Sigma-Aldrich, St. Louis, USA), at a concentration of 1 μM, was used as a positive control. At the end of the culture period, the WST-1 proliferation assay (Roche, Basel, Switzerland) was performed according to the manufacturer’s protocol. The absorbance was determined using a Tecan Spark microplate reader (Tecan, Männedorf, Switzerland). Each value is the mean of three independent experiments and represents the percentage of the proliferation of control, nontreated cells (100%). The growth percent (GP) value as the mean of the proliferation decrease was calculated for each cell line and derivative tested.
# [2] = test system: HT-29 (colorectal adenocarcinoma); assay: as above; format: cell-based; settings: Homo sapiens, read-out: growth percent (GP) HT-29
# Description: as §1, §2
# [3] = test system: A549 (lung carcinoma); assay: as above; format: cell-based; settings: Homo sapiens, read-out: growth percent (GP) A549
# Description: as §1, §2
# [4] = test system: PANC-1 (pancreas epithelioid carcinoma); assay: as above; format: cell-based; settings: Homo sapiens, read-out: growth percent (GP) PANC-1
# Description: as §1, §2
# [5] = test system: SAOS-2 (osteosarcoma); assay: as above; format: cell-based; settings: Homo sapiens, read-out: growth percent (GP) SAOS-2
# Description: as §1, §2
# [6] = test system: A2780 (ovarian carcinoma); assay: as above; format: cell-based; settings: Homo sapiens, read-out: growth percent (GP) A2780
# Description: as §1, §2
# [7] = test system: HeLa (cervix adenocarcinoma); assay: as above; format: cell-based; settings: Homo sapiens, 48 h, read-out: growth percent (GP) HeLa
# Description: as §1, §2
# [8] = test system: MRC-5 (nontumor lung fibroblasts); assay: as above; format: cell-based; settings: Homo sapiens, read-out: growth percent (GP) MRC-5
# Description: as §1, §2
# [9] = target: T1, hAChE (Homo sapiens, UniProt P22303); assay: biochemical; format: biochemical; settings: recombinant AChE, Ellman, 37 °C
# T1 construct: purchased University Hradec Kralove, Department of Chemistry, Faculty of Science
# Experimental: (§3) The hAChE and hBChE activities were determined using a modified method of Ellman, as described by Hrabinova and co-workers against recombinant AChE and recombinant BChE (purchased from University Hradec Kralove, Department of Chemistry, Faculty of Science).[43] Other used chemicals were phosphate buffer solution (PBS, pH = 7.4), 5,5′-dithio-bis(2-nitrobenzoic) acid (Ellman’s reagent, DTNB), acetylthiocholine iodide (ATChI), butyrylthiocholine iodide (BTChI), and dimethyl sulfoxide (DMSO) (all chemicals were purchased from Sigma-Aldrich, Prague, Czech Republic).
# (§4) Briefly, 8.3 μL of the corresponding enzyme, 283 μL of 5 mM DTNB, and 8.3 μL of the sample dilution in DMSO in different concentrations were added to the microplate. These solutions were incubated for 5 min at 37 °C. Then, 33.3 μL of 10 mM substrate (ATChI or BTChI) was added to initiate the reaction, and the whole reaction mixture was incubated for 2 min at 37 °C. […] This difference after 1 min was used to calculate the percentage of inhibitory potential of the given derivative. Each measurement was repeated three times for every concentration of the compound. 8.3 μL DMSO was used as a blank. The % inhibition was calculated according to the following formula: [drawing 3] where ΔABl is the increase of absorbance of the blank sample and ΔASa is the increase of absorbance of the measured sample.
# [10] = target: T2, hBChE (Homo sapiens, UniProt P06276); assay: biochemical; format: biochemical; settings: recombinant BChE, Ellman, 37 °C
# T2 construct: purchased University Hradec Kralove, Department of Chemistry, Faculty of Science
# Experimental: as §3, §4
# [11] = test system: MCF-7 (breast adenocarcinoma); assay: WST-1 cell proliferation assay, cytotoxicity screening; format: cell-based, human; settings: Homo sapiens, read-out: growth percent (GP) MCF-7
# Description: as §1, §2
# [12] = test system: MOLT-4 (acute lymphoblastic leukemia); assay: as above; format: cell-based, human; settings: Homo sapiens, read-out: growth percent (GP) MOLT-4
# Description: as §1, §2
# [13] = test system: nine human tumor and one nontumor cell lines; assay: Cytotoxicity screening across the whole panel of cell lines; format: cell-based; settings: Homo sapiens, read-out: GP value across the tested cell lines
# Description: Concerning the cytotoxicity of alkaloids isolated from Z. citrina, initially, Prakash and Vedanayaki investigated the MeOH extract of the bulbs for its in vitro cytotoxic activity using the MTT assay against three human cancer cell lines from different tissue origins: cervical cancer (HeLa), breast cancer (MCF-7), and oral squamous carcinoma (SCC-9). […] In this context, and to assess potential negative effects on human cell cultures, compounds 1, and 3–27 were screened in our study for cytotoxicity using a 10 μM single-dose regimen. The results were compared with those using the clinically approved antineoplastic agent doxorubicin at 1 μM. The effect on cell growth was investigated on nine human tumor and one nontumor cell lines, namely Jurkat (acute T-cell leukemia), MOLT-4 (acute lymphoblastic leukemia), A549 (lung carcinoma), HT-29 (colorectal adenocarcinoma), PANC-1 (pancreas epithelioid carcinoma), A2780 (ovarian carcinoma), HeLa (cervix adenocarcinoma), MCF-7 (breast adenocarcinoma), SAOS-2 (osteosarcoma) and MRC-5 (nontumor lung fibroblasts). […] No toxicity is valuable information, especially for compound 18, as it is a potent inhibitor of hAChE and hBChE.[27]
# Selected human tumor and nontumor cell lines Jurkat (acute T-cell leukemia), MOLT-4 (acute lymphoblastic leukemia), A549 (lung carcinoma), HT-29 (colorectal adenocarcinoma), PANC-1 (pancreas epithelioid carcinoma), A2780 (ovarian carcinoma), HeLa (cervix adenocarcinoma), MCF-7 (breast adenocarcinoma), SAOS-2 (osteosarcoma) and MRC-5 (nontumor lung fibroblasts) were purchased from European Collection of Authenticated Cell Cultures (ECACC, Salisbury, UK) and cultured according to the provider’s culture method guidelines. All cell lines were maintained at 37 °C in a humidified 5% carbon dioxide and 95% air incubator. The cells in low passage number (nontumor primary cell line MRC-5 was used for a maximum of 10 passages and cancer cell lines were used for a maximum of 20 passages) and in an exponential growth phase were used for this study.
# as §2
# [14] = c = 10 μM, % of proliferation of nontreated control
# [15] = HT-29, c = 10 μM, 48 h, % of proliferation of nontreated control
# [16] = A549, c = 10 μM, 48 h, % of proliferation of nontreated control
# [17] = PANC-1, c = 10 μM, 48 h, % of proliferation of nontreated control
# [18] = SAOS-2, c = 10 μM, 48 h, % of proliferation of nontreated control
# [19] = A2780, c = 10 μM, 48 h, % of proliferation of nontreated control
# [20] = MRC5, c = 10 μM, 48 h, % of proliferation of nontreated control
# [21] = MCF7, c = 10 μM, 48 h, % of proliferation of nontreated control
# [22] = MOLT-4, c = 10 μM, 48 h, % of proliferation of nontreated control
# [23] = 10 μM single dose, 48-h interval, all tested cell lines
# T1 sequence (P22303 32-614): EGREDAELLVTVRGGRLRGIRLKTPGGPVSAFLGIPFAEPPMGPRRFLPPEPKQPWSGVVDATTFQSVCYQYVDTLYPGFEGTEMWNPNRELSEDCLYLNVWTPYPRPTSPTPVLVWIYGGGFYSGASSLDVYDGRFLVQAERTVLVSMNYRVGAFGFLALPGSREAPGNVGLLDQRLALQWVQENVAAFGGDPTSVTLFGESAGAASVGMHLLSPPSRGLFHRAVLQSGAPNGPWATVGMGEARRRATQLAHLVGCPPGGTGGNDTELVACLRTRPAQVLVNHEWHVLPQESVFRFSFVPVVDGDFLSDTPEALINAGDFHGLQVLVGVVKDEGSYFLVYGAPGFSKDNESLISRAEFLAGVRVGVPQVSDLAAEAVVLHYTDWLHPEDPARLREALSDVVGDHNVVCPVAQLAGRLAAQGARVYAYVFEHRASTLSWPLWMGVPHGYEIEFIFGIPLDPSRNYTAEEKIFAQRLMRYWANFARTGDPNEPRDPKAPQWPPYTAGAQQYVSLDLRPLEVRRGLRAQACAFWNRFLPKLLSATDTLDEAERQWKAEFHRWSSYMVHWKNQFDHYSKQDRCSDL
# T2 sequence (P06276 29-602): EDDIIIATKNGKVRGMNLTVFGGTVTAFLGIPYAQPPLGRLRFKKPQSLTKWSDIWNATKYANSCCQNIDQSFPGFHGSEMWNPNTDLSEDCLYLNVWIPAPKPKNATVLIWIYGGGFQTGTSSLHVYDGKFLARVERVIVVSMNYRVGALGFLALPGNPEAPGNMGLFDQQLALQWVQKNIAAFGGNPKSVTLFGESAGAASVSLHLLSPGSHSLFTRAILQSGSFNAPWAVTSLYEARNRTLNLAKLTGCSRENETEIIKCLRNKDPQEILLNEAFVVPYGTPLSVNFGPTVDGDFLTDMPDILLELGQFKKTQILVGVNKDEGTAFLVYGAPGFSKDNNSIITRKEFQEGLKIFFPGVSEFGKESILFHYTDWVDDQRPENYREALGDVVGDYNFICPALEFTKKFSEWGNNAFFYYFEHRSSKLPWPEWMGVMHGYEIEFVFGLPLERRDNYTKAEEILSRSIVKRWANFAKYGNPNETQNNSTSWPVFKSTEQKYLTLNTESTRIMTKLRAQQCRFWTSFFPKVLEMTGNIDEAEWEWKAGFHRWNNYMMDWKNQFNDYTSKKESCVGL
smiles,measurement,setting,value
"COc1cc2c(cc1OC)[C@@]13C=C[C@@H](OC)C[C@@H]1N(C2)C[C@@H]3O [Compound 1, zephycitrine]",activity at 10 µM,[1]; [14],111%
same,activity at 10 µM,[2]; [15],101%
same,activity at 10 µM,[3]; [16],100%
same,activity at 10 µM,[4]; [17],102%
same,activity at 10 µM,[5]; [18],101%
same,activity at 10 µM,[6]; [19],98%
same,activity at 10 µM,[7]; [14],97%
same,activity at 10 µM,[8]; [20],107%
same,IC50,[9],> 100 µM
same,IC50,[10],> 100 µM
same,activity at 10 µM,[11]; [21],106%
same,activity at 10 µM,[12]; [22],99%
same,activity at 10 µM,[13]; [23],> 50%
"CCO[C@H]1c2cc(OC)c(OC)c(O)c2[C@@]23CC[C@H](OC)C[C@@H]2N1CC3 [Compound 3, 6-O-ethylzephyranine F]",activity at 10 µM,[1],108%
same,activity at 10 µM,"[2]; HT-29, 48 h",103%
same,activity at 10 µM,"[3]; A549, 48 h",103%
same,activity at 10 µM,"[4]; PANC-1, 48 h",101%
same,activity at 10 µM,"[5]; SAOS-2, 48 h",99%
same,activity at 10 µM,"[6]; A2780, 48 h",110%
same,activity at 10 µM,[7],108%
same,activity at 10 µM,"[8]; MRC5, 48 h",104%
same,IC50,[9],> 100 µM
same,IC50,[10],> 100 µM
same,activity at 10 µM,"[11]; MCF7, 48 h",97%
same,activity at 10 µM,"[12]; MOLT-4, 48 h",101%
same,activity at 10 µM,[13]; 48 h,> 50%
"CCO[C@H]1c2cc(OC)c(OC)cc2[C@@]23CC[C@H](OC)C[C@@H]2N1CC3 [Compound 4, 6-O-ethylzephyranine E]",activity at 10 µM,[1],90%
same,activity at 10 µM,"[2]; HT-29, 48 h",91%
same,activity at 10 µM,"[3]; A549, 48 h",100%
same,activity at 10 µM,"[4]; PANC-1, 48 h",88%
same,activity at 10 µM,"[5]; SAOS-2, 48 h",98%
same,activity at 10 µM,"[6]; A2780, 48 h",85%
same,activity at 10 µM,[7],109%
same,activity at 10 µM,"[8]; MRC5, 48 h",99%
same,IC50,[9],> 100 µM
same,IC50,[10],> 100 µM
same,activity at 10 µM,"[11]; MCF7, 48 h",96%
same,activity at 10 µM,"[12]; MOLT-4, 48 h",101%
same,activity at 10 µM,[13]; 48 h,> 50%
"COc1cc2c(cc1OC)[C@@H]1[C@H](O)[C@@H](OC)[C@H](O)C3=CCN(C2)[C@H]31 [Compound 6, narcissidine]",activity at 10 µM,[1]; [14],111%
same,activity at 10 µM,[2]; [15],108%
same,activity at 10 µM,[3]; [16],113%
same,activity at 10 µM,[4]; [17],102%
same,activity at 10 µM,[5]; [18],101%
same,activity at 10 µM,[6]; [19],101%
same,activity at 10 µM,[7]; [14],123%
same,activity at 10 µM,[8]; [20],101%
same,IC50,[9],> 100 µM
same,IC50,[10],> 100 µM
same,activity at 10 µM,[11]; [21],103%
same,activity at 10 µM,[12]; [22],101%
same,activity at 10 µM,[13]; [23],> 50%
"COc1ccc2c3c1O[C@H]1C[C@@H](O)CC[C@@]31CCNC2 [Compound 7, norlycoramine]",activity at 10 µM,[1],103%
same,activity at 10 µM,"[2]; HT-29, 48 h",100%
same,activity at 10 µM,"[3]; A549, 48 h",103%
same,activity at 10 µM,"[4]; PANC-1, 48 h",103%
same,activity at 10 µM,"[5]; SAOS-2, 48 h",97%
same,activity at 10 µM,"[6]; A2780, 48 h",97%
same,activity at 10 µM,[7],98%
same,activity at 10 µM,"[8]; MRC5, 48 h",98%
same,IC50,[9],> 100 µM and 155 µM
same,IC50,[10],> 100 µM
same,activity at 10 µM,"[11]; MCF7, 48 h",97%
same,activity at 10 µM,"[12]; MOLT-4, 48 h",99%
same,activity at 10 µM,[13]; 48 h,> 50%
"COc1cc2c(c(O)c1OC)[C@@]13CC[C@H](O)C[C@@H]1N(CC3)C2O (stereo partly drawn) [Compound 8, zephyranine C]",activity at 10 µM,[1],109%
same,activity at 10 µM,"[2]; HT-29, 48 h",121%
same,activity at 10 µM,"[3]; A549, 48 h",117%
same,activity at 10 µM,"[4]; PANC-1, 48 h",110%
same,activity at 10 µM,"[5]; SAOS-2, 48 h",111%
same,activity at 10 µM,"[6]; A2780, 48 h",105%
same,activity at 10 µM,[7],117%
same,activity at 10 µM,"[8]; MRC5, 48 h",100%
same,IC50,[9],> 100 µM
same,IC50,[10],> 100 µM
same,activity at 10 µM,"[11]; MCF7, 48 h",112%
same,activity at 10 µM,"[12]; MOLT-4, 48 h",98%
same,activity at 10 µM,[13]; 48 h,> 50%

# From paper PMC11443518, “Undescribed Amaryllidaceae Alkaloids from Zephyranthes citrina and Their Cytotoxicity” (Journal of Natural Products, 2024)
